Measurements from ChEMBL document CHEMBL3621167, “Therapeutic Potential of 5-HT6 Receptor Agonists” (J Med Chem, 2015).
pEC50, pKi: −log10 of the molar value.

Legend:
Homo sapiens [1] = species on record: Homo sapiens; experiment: Selectivity ratio of Ki for human 5-HT7 receptor to Ki for human 5-HT6 receptor
Homo sapiens [2] = species on record: Homo sapiens; experiment: Selectivity ratio of Ki for human 5-HT1B receptor to Ki for human 5-HT6 receptor
Homo sapiens [3] = species on record: Homo sapiens; experiment: Selectivity ratio of Ki for human 5-HT1F receptor to Ki for human 5-HT6 receptor
Homo sapiens [4] = species on record: Homo sapiens; experiment: Selectivity ratio of Ki for human 5-HT1D receptor to Ki for human 5-HT6 receptor
Homo sapiens [5] = species on record: Homo sapiens; experiment: Selectivity ratio of Ki for human 5-HT5A receptor to Ki for human 5-HT6 receptor
Homo sapiens [6] = species on record: Homo sapiens; experiment: Selectivity ratio of Ki for human 5-HT1A receptor to Ki for human 5-HT6 receptor
[7] = molecular target: T1, Adrenergic receptor alpha-1 (Rattus norvegicus, UniProt P15823+P23944+P43140); experiment: Binding affinity to rat alpha1 adrenergic receptor
T1 sequence (P15823 whole entry): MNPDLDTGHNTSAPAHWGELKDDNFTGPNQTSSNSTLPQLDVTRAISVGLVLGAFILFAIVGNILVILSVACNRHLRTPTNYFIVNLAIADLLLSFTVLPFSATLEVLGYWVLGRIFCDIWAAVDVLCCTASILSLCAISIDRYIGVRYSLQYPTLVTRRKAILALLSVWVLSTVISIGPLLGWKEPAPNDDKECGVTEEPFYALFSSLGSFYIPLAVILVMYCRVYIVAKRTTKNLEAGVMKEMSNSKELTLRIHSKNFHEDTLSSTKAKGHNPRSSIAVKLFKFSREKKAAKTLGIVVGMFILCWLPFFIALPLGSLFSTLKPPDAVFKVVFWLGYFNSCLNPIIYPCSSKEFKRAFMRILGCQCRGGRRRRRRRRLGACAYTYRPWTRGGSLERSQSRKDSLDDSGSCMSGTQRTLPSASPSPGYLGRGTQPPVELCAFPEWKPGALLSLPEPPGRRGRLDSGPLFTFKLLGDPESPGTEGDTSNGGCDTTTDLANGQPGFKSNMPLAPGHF
T1 sequence (P23944 whole entry): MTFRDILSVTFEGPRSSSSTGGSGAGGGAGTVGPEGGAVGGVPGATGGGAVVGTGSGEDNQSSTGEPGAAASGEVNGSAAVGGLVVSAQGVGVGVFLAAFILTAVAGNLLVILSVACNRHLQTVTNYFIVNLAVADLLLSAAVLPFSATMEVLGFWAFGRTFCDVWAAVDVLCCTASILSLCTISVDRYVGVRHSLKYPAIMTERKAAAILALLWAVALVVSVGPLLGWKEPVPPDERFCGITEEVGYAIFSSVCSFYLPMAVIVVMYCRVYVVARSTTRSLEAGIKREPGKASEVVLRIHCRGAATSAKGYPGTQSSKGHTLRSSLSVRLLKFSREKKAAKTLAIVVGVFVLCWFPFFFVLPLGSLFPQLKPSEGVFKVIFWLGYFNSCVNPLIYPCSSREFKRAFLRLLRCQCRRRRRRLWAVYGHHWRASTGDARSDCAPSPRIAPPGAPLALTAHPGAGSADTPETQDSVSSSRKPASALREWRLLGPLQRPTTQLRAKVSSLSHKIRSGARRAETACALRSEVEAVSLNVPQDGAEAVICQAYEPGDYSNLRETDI
T1 sequence (P43140 whole entry): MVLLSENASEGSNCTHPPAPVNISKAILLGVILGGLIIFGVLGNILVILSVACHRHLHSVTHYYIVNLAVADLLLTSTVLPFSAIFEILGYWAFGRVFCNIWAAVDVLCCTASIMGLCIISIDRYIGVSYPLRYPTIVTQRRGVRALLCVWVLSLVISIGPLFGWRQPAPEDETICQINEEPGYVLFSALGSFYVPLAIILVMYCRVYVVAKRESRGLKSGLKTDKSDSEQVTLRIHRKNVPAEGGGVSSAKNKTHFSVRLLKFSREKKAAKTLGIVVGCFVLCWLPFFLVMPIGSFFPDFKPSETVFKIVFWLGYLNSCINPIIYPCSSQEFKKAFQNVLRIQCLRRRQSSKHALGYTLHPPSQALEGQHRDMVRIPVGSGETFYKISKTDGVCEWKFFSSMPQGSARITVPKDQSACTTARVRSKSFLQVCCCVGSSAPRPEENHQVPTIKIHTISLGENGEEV

[8] = Selectivity ratio of Ki for 5-HT2B receptor (unknown origin) to Ki for rat 5-HT6 receptor
[9] = molecular target: T2, Adrenergic receptor alpha-2 (Homo sapiens, UniProt P08913+P18825+P18089); experiment: Binding affinity to human recombinant alpha2 adrenergic receptor; type: protein assay
T2 sequence (P08913 whole entry): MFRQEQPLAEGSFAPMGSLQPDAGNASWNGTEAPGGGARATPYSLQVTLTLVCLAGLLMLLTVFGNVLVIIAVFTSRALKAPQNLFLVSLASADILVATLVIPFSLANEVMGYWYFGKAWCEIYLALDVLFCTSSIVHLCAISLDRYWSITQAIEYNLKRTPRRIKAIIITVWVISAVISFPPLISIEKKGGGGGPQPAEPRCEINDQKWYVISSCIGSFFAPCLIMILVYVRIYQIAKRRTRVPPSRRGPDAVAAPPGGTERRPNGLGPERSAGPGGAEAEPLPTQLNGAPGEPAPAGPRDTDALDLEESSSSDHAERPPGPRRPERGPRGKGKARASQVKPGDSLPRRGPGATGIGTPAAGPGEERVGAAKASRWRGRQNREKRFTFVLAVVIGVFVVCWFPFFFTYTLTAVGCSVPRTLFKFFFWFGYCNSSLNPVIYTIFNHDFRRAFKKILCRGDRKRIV
T2 sequence (P18825 whole entry): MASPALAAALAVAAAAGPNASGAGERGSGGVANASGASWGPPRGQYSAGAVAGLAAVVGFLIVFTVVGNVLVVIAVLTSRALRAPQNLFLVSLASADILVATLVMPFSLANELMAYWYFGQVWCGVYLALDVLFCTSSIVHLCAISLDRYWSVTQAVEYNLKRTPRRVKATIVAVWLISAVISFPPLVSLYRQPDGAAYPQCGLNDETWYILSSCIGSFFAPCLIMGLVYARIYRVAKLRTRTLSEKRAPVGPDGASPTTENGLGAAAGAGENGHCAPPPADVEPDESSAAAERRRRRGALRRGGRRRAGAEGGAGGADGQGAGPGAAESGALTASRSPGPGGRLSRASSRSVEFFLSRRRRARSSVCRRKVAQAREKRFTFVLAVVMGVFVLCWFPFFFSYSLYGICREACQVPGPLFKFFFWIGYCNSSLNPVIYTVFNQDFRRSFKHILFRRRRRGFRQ
T2 sequence (P18089 whole entry): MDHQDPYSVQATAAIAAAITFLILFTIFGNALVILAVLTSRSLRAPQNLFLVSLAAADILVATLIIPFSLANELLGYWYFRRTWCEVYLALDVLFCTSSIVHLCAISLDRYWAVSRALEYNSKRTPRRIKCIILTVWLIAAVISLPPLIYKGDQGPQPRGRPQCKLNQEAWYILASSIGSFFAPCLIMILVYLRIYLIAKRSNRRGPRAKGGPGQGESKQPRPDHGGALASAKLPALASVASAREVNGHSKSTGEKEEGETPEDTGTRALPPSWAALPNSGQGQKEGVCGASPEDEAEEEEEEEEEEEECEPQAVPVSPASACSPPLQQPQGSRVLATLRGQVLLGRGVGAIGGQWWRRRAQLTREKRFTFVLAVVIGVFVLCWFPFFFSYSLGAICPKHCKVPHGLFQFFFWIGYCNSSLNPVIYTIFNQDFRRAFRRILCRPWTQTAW

[10] = molecular target: 5-hydroxytryptamine receptor 6 (Rattus norvegicus, UniProt P31388); experiment: Displacement of [3H] lysergic acid diethylamide from rat 5-HT6 receptor transfected in HEK293 cells after 60 mins by scintillation counter; type: cell-based
[11] = molecular target: 5-hydroxytryptamine receptor 7 (Homo sapiens, UniProt P34969); experiment: Binding affinity to 5-HT7 receptor (unknown origin)
[12] = molecular target: T3, Adrenergic receptor alpha-2 (Rattus norvegicus, UniProt P22086+P19328+P22909); experiment: Binding affinity to rat alpha2 adrenergic receptor
T3 sequence (P22086 whole entry): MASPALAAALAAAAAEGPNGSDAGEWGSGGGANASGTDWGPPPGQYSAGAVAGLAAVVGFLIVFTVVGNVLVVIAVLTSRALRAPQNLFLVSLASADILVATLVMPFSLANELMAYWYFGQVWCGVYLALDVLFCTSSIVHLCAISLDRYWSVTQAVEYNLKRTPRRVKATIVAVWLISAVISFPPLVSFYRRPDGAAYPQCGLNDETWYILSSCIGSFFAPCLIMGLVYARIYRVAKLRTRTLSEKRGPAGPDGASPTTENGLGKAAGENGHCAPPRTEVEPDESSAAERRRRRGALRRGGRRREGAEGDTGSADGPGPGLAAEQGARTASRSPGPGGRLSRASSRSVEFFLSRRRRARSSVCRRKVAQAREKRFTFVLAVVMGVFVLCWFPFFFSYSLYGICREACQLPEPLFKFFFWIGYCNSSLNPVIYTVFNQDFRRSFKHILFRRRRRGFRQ
T3 sequence (P19328 whole entry): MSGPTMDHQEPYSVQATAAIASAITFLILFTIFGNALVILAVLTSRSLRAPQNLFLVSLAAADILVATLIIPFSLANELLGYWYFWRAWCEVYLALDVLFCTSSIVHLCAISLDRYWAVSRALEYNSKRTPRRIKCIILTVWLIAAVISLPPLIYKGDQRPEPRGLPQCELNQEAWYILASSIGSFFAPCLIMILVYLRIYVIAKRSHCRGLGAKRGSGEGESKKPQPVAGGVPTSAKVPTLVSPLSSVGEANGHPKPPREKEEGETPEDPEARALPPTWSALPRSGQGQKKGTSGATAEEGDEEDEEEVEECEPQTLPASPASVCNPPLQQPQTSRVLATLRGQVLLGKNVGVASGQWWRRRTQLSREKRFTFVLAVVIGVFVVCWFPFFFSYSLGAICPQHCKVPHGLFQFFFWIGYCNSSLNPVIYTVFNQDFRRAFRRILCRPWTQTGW
T3 sequence (P22909 whole entry): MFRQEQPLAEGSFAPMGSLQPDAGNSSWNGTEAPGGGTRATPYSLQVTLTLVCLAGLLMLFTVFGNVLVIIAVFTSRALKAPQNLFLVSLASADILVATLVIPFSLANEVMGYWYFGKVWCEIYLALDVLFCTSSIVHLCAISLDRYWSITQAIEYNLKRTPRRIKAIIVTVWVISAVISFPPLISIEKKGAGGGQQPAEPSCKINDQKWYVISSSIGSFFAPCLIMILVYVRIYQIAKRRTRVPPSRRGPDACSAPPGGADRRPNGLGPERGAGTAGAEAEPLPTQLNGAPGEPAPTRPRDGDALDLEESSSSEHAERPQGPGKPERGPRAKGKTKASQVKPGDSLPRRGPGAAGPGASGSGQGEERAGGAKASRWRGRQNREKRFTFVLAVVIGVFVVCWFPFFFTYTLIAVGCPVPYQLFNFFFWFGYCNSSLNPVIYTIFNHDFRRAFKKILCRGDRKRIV

[13] = Selectivity ratio of Ki for 5-HT7 receptor (unknown origin) to Ki for rat 5-HT6 receptor
[14] = molecular target: 5-hydroxytryptamine receptor 6 (Homo sapiens, UniProt P50406); experiment: Agonist activity at 5-HT6 receptor (unknown origin)
[15] = molecular target: 5-hydroxytryptamine receptor 2B (Homo sapiens, UniProt P41595); experiment: Binding affinity to 5-HT2B receptor (unknown origin)
5-hydroxytryptamine receptor 2B, sequence (P41595 whole entry): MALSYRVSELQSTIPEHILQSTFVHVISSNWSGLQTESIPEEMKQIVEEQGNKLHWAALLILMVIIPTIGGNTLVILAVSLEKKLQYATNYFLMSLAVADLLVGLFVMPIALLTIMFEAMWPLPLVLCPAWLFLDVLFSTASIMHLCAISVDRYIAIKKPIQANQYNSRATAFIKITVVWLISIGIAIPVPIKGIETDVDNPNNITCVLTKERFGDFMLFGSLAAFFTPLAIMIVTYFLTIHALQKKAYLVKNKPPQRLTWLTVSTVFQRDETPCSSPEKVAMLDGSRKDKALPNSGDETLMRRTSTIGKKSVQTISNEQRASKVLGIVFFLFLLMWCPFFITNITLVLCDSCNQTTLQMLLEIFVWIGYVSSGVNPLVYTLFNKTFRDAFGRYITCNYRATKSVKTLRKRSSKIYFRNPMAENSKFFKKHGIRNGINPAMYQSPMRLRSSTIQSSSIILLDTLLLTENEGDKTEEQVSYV

5-hydroxytryptamine receptor 6 (Rattus norvegicus, UniProt P31388), sequence (P31388 whole entry): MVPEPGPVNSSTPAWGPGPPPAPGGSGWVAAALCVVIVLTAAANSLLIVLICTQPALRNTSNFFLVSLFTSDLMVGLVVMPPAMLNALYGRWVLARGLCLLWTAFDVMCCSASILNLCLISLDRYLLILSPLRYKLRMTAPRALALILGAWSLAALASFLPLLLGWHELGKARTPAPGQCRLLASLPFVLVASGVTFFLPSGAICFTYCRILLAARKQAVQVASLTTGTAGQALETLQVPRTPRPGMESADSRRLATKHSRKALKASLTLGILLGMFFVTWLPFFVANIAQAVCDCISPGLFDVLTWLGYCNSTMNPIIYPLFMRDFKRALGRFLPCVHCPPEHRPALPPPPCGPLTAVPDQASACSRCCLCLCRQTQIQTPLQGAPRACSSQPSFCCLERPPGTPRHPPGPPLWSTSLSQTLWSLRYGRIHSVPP
5-hydroxytryptamine receptor 6 (Homo sapiens, UniProt P50406), sequence (P50406 whole entry): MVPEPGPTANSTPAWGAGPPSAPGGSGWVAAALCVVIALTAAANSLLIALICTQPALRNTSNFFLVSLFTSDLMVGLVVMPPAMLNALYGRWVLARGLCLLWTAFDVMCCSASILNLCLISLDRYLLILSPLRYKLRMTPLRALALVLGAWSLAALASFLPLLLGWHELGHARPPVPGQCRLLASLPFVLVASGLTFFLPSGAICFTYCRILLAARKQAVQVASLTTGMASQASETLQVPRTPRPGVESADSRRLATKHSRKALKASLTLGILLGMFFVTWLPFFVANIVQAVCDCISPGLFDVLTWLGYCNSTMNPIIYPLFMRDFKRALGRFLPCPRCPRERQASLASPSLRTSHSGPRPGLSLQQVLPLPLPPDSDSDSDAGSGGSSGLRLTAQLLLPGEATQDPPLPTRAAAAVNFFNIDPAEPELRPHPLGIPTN
5-hydroxytryptamine receptor 7, sequence (P34969 whole entry): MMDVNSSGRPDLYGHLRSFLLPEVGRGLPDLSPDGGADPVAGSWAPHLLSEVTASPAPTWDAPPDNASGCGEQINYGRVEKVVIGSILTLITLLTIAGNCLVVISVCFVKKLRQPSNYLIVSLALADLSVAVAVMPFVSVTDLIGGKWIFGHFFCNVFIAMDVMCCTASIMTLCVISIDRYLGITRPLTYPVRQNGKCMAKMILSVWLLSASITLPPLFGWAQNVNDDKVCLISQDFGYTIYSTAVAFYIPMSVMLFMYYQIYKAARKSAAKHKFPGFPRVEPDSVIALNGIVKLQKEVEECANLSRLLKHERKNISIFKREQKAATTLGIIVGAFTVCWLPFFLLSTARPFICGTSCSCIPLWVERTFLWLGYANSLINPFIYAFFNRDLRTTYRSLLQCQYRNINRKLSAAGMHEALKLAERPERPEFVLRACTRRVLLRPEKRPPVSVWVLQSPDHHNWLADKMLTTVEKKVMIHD

| Compound | Ratio Ki (Homo sapiens [1]) | Ratio Ki (Homo sapiens [2]) | Ratio Ki (Homo sapiens [3]) | Ratio Ki (Homo sapiens [4]) | Ratio Ki (Homo sapiens [5]) | Ratio Ki (Homo sapiens [6]) | Ki [7] | Ratio Ki [8] | Ki [9] | pKi [10] | pKi [11] | Ki [12] | Ratio Ki [13] | pEC50 [14] | pKi [15] |
| --- | --- | --- | --- | --- | --- | --- | --- | --- | --- | --- | --- | --- | --- | --- | --- |
| CN(C)CCc1cn(S(=O)(=O)c2ccccc2)c2ccccc12 | > 100 | > 100 | > 100 | > 100 | > 100 | > 100 |  |  |  |  |  |  |  |  |  |
| Cc1[nH]c2ccc(Cl)cc2c1CCN(C)C |  |  |  |  |  |  | 300 nM | 8 | 300 nM | 7.54 | 6.54 | 300 nM | 10 | 7.35 | 6.61 |
